The values below come from patent publication US8697873B2, “Amide substituted imidazopyridines, imidazoquinolines, and imidazonaphthyridines” (3M Innovative Properties Company, priority 2004, dated 2014).

For `CCCc1nc2c(N)nc(C)c(C)c2n1CCCC(=O)N1CCOCC1` [Example 41, 6,7-Dimethyl-1-(4-morpholin-4-yl-4-oxobutyl)-2-propyl-1H-imidazo[4,5-c]pyridin-4-amine], the melting point lay within 164 to 165 °C.
For the compound `CCOCc1nc2c(N)nc3ccccc3c2n1CCCCC(=O)N1CCOCC1` [Example 48, 2-(Ethoxymethyl)-1-(5-morpholin-4-yl-5-oxopentyl)-1H-imidazo[4,5-c]quinolin-4-amine], the melting point fell in the range of 128 to 129 °C.
In the case of `CCOCc1nc2c(N)nc3cccnc3c2n1CCCCCC(=O)N1CCOCC1` [Example 57, 2-(Ethoxymethyl)-1-(6-morpholin-4-yl-6-oxohexyl)-1H-imidazo[4,5-c][1,5]naphthyridin-4-amine] it was 168 to 170 °C.
For `CCCc1nc2c(N)nc3ccccc3c2n1CCC(=O)N1CCOCC1` [Example 16, 1-(3-Morpholin-4-yl-3-oxopropyl)-2-propyl-1H-imidazo[4,5-c]quinolin-4-amine], the melting point lay within 172 to 173 °C.
For the compound `CCOCc1nc2c(N)nc3cccnc3c2n1CCCC(N)=O` [Example 39, 4-[4-Amino-2-(ethoxymethyl)-1H-imidazo[4,5-c][1,5]naphthyridin-1-yl]butanamide], the melting point fell in the range of 231 to 232 °C.
`CCc1nc2c(N)nc(C)c(C)c2n1CCCC(=O)N1CCOCC1` [Example 43, 2-Ethyl-6,7-dimethyl-1-(4-morpholin-4-yl-4-oxobutyl)-1H-imidazo[4,5-c]pyridin-4-amine]: the melting point lay in the range of 209 to 210 °C.
Regarding `CCc1nc2c(N)nc3cccnc3c2n1CCCCCC(=O)N1CCOCC1` [Example 55, 2-Ethyl-1-(6-morpholin-4-yl-6-oxohexyl)-1H-imidazo[4,5-c][1,5]naphthyridin-4-amine], the melting point was 163 to 165 °C.
The compound `Cc1nc2c(N)nc3ccccc3c2n1CCCCC(=O)N1CCOCC1` [Example 47, 2-Methyl-1-(5-morpholin-4-yl-5-oxopentyl)-1H-imidazo[4,5-c]quinolin-4-amine] came in with a melting point of 218 to 219 °C.
In turn, `CCCCc1nc2c(N)nc3ccccc3c2n1CC(C)(C)C(N)=O` [Example 63, 3-(4-Amino-2-butyl-1H-imidazo[4,5-c]quinolin-1-yl)-2,2-dimethylpropanamide] gave a melting point of 231 to 233 °C.
With `CCCc1nc2c(N)nc3ccccc3c2n1CCC(=O)N(C)C` [Example 51, 3-(4-Amino-2-propyl-1H-imidazo[4,5-c]quinolin-1-yl)-N,N-dimethylpropanamide], the melting point was in the range of 207 to 209 °C.
In turn, `CCCc1nc2c(N)nc3ccccc3c2n1CCCCCC(=O)NC` [Example 8, 6-(4-Amino-2-propyl-1H-imidazo[4,5-c]quinolin-1-yl)-N-methylhexanamide] gave a melting point of 158 to 159 °C.
The result for `CCCc1nc2c(N)nc3c(c2n1CCCCCC(=O)N1CCOCC1)CCCC3` [Example 30, 1-(6-Morpholin-4-yl-6-oxohexyl)-2-propyl-6,7,8,9-tetrahydro-1H-imidazo[4,5-c]quinolin-4-amine] reads 162 to 163 °C.
As for `CCc1nc2c(N)nc3ccccc3c2n1CC(C)(C)C(N)=O` [Example 60, 3-(4-Amino-2-ethyl-1H-imidazo[4,5-c]quinolin-1-yl)-2,2-dimethylpropanamide], the melting point was in the range of 279 to 281 °C.
Compound `COCCc1nc2c(N)nc3ccccc3c2n1CCCCC(=O)N1CCOCC1` [Example 36, 2-(2-Methoxyethyl)-1-(5-morpholin-4-yl-5-oxopentyl)-1H-imidazo[4,5-c]quinolin-4-amine] returned a melting point of 128 to 129 °C.
Compound `CCCc1nc2c(N)nc3ccccc3c2n1CCCCCC(N)=O` [Example 9, 6-(4-Amino-2-propyl-1H-imidazo[4,5-c]quinolin-1-yl)hexanamide] displayed a melting point of 210 to 211 °C.
For the compound `CCCc1nc2c(N)nc3ccccc3c2n1CCCC(N)=O` [Example 4, 4-(4-Amino-2-propyl-1H-imidazo[4,5-c]quinolin-1-yl)butanamide], the melting point was in the range of 249 to 251 °C.
In the case of `CCOCc1nc2c(N)nc3ccccc3c2n1CCCC(=O)N1CCOCC1` [Example 5, 2-(Ethoxymethyl)-1-(4-morpholin-4-yl-4-oxobutyl)-1H-imidazo[4,5-c]quinolin-4-amine], the melting point was in the range of 201 to 203 °C.
In turn, `CCCNC(=O)CCCCCn1c(CCC)nc2c(N)nc3ccccc3c21` [Example 7, 6-(4-Amino-2-propyl-1H-imidazo[4,5-c]quinolin-1-yl)-N-propylhexanamide] registered a melting point of 139 to 141 °C.
`CCCc1nc2c(N)nc3cccnc3c2n1CCCC(=O)N1CCOCC1` [Example 37, 1-(4-Morpholin-4-yl-4-oxobutyl)-2-propyl-1H-imidazo[4,5-c][1,5]naphthyridin-4-amine] had a melting point of 196 to 197 °C.
With `COCCc1nc2c(N)nc3ccccc3c2n1CCCCCC(=O)N1CCOCC1` [Example 12, 2-(2-Methoxyethyl)-1-(6-morpholin-4-yl-6-oxohexyl)-1H-imidazo[4,5-c]quinolin-4-amine], the melting point is 131 to 132 °C.
As to `CCCc1nc2c(N)nc(C)c(C)c2n1CCCC(N)=O` [Example 40, 4-(4-Amino-6,7-dimethyl-2-propyl-1H-imidazo[4,5-c]pyridin-1-yl)butanamide], the melting point fell in the range of 226 to 228 °C.
`CCOCc1nc2c(N)nc3ccccc3c2n1CCCCC(N)=O` [Example 49, 5-[4-Amino-2-(ethoxymethyl)-1H-imidazo[4,5-c]quinolin-1-yl]pentanamide] registered a melting point of 198 to 200 °C.
In turn, `CCOCc1nc2c(N)nc3ccccc3c2n1CCCCCC(=O)N1CCOCC1` [Example 13, 2-(Ethoxymethyl)-1-(6-morpholin-4-yl-6-oxohexyl)-1H-imidazo[4,5-c]quinolin-4-amine] displayed a melting point of 160 to 162 °C.
Consider `CCCc1nc2c(N)nc3ccccc3c2n1CCCCC(=O)N1CCOCC1` [Example 34, 1-(5-Morpholin-4-yl-5-oxopentyl)-2-propyl-1H-imidazo[4,5-c]quinolin-4-amine], for which the melting point was in the range of 178 to 179 °C.
As for `CCCc1nc2c(N)nc3ccccc3c2n1CCCCCCCCCCCC(=O)NC` [Example 25, 12-(4-Amino-2-propyl-1H-imidazo[4,5-c]quinolin-1-yl)-N-methyldodecanamide], the melting point fell in the range of 135 to 137 °C.
In the case of `CCOCc1nc2c(N)nc3ccccc3c2n1CCC(=O)N1CCOCC1` [Example 23, 2-(Ethoxymethyl)-1-(3-morpholin-4-yl-3-oxopropyl)-1H-imidazo[4,5-c]quinolin-4-amine] it was 187 to 189 °C.
